# Target: T1, OX2 receptor (Homo sapiens, UniProt O43614)
# T1 construct: expressed in transfected cells; host or cells: CHO cells (membranes)
# T1 sequence (O43614 1-444): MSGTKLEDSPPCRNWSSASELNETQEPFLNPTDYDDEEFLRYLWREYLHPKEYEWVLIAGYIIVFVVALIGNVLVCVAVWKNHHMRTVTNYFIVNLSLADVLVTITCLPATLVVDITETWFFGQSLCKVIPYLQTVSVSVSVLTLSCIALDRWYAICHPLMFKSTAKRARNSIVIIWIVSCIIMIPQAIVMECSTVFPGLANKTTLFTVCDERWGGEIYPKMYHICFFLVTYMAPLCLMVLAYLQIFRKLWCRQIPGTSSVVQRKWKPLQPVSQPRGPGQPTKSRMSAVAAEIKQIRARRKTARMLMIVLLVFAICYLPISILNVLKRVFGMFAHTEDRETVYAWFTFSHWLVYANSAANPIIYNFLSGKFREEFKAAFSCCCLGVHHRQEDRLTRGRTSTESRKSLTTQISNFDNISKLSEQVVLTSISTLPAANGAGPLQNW
# Assay: radioligand binding assay, OX2 receptor
# Details: membranes prepared from CHO cells expressing the OX2 receptor; read-out: OX2R Ki
# Protocol: The utility of the compounds in accordance with the present invention as orexin receptor OX1R and/or OX2R antagonists may be readily determined without undue experimentation by methodology well known in the art, including the “FLIPR Ca^2+ Flux Assay” (Okumura et al., Biochem. Biophys. Res. Comm. 280:976-981, 2001). In a typical experiment the OX1 and OX2 receptor antagonistic activity of the compounds of the present invention was determined in accordance with the following experimental method. For intracellular calcium measurements, Chinese hamster ovary (CHO) cells expressing the rat orexin-1 receptor or the human orexin-2 receptor, are grown in Iscove's modified DMEM containing 2 mM L-glutamine, […], 1% hypoxanthine-thymidine supplement, 100 U/ml penicillin, 100 ug/ml streptomycin and 10% heat-inactivated fetal calf serum (FCS). The cells are seeded at 20,000 cells/well into Becton-Dickinson black 384-well clear bottom sterile plates coated with poly-D-lysine. All reagents were from GIBCO-Invitrogen Corp. The seeded plates are incubated overnight at 37° C. and 5% CO2. Ala-6,12 human orexin-A as the agonist is prepared as a 1 mM stock solution in 1% bovine serum albumin (BSA) and diluted in assay buffer (HBSS containing 20 mM HEPES, 0.1% BSA and 2.5 mM probenecid, pH 7.4) for use in the assay at a final concentration of 70 pM. Test compounds are prepared as 10 mM stock solution in DMSO, then diluted in 384-well plates, first in DMSO, then assay buffer. On the day of the assay, cells are washed 3 times with 100 ul assay buffer and then incubated for 60 min (37° C., 5% CO2) in 60 ul assay buffer containing 1 uM Fluo-4AM ester, 0.02% pluronic acid, and 1% BSA. The dye loading solution is then aspirated and cells are washed 3 times with 100 ul assay buffer. 30 ul of that same buffer is left in each well. Within the Fluorescent Imaging Plate Reader (FLIPR, Molecular Devices), test compounds are added to the plate in a volume of 25 ul, incubated for 5 min and finally 25 ul of agonist is added. Fluorescence is measured for each well at 1 second intervals for 5 minutes and the height of each fluorescence peak is compared to the height of the fluorescence peak induced by 70 pM Ala-6,12 orexin-A with buffer in place of antagonist. For each antagonist, IC50 value (the concentration of compound needed to inhibit 50% of the agonist response) is determined. Alternatively, compound potency can be assessed by a radioligand binding assay (described in Bergman et. al. Bioorg. Med. Chem. Lett. 2008, 18, 1425-1430) in which the inhibition constant (Ki) is determined in membranes prepared from CHO cells expressing either the OX1 or OX2 receptor. The intrinsic orexin receptor antagonist activity of a compound which may be used in the present invention may be determined by these assays.
row,Molecule,Ki [nM]
1,"COc1ccc(CNC(=O)c2cc(-c3cncc(C#N)c3)cnc2-c2ccccn2)nc1OC [12-14, 5″-cyano-N-[(5,6-dimethoxypyridin-2-yl)methyl]-2,2′:5′,3″- terpyridine-3′-carboxamide]",12
2,"COc1ccc(CNC(=O)c2cc(-c3cc(C)cnc3F)cnc2-c2ccccn2)cc1Cl [11-5, N-(3-chloro-4-methoxybenzyl)-2″-fluoro-5″- methyl-2,2′: 5′,3 ″-terpyridine-3′-carboxamide]",1.3
3,"N-(4-ethyl-3- methoxybenzyl)-5″- methyl-2,2′:5′,3″- terpyridine-3′- carboxamide [12-17]",1.2

# Now those with a lower Ki, led by results:
row,Ki [nM],Molecule
1,0.54,"COc1ccc(CNC(=O)c2cc(-c3cncc(Cl)c3)cnc2-c2ccccn2)nc1OC [12-5, 5″-chloro-N-[(5,6-dimethoxypyridin-2-yl)methyl]-2,2′:5′,3″-terpyridine-3′-carboxamide]"
2,0.46,"COc1ccc(CNC(=O)c2cc(-c3cncc(C)c3)cnc2-c2ccccn2)nc1OC [12-6, N-[(5,6-dimethoxypyridin-2-yl)methyl]-5″-methyl-2,2′:5′,3″-terpyridine-3′-carboxamide]"
